Target: T1, MdtM (Escherichia coli, UniProt P39386)
T1 construct: full-length 410 residues, pBAD/Myc-His A vector (C-terminal Myc-His tag), overproduced in E. coli LMG194, purified in DDM detergent
Assay: biochemical
Type: binding
Text: intrinsic tryptophan fluorescence quenching on MdtM

T1 sequence (P39386 whole entry): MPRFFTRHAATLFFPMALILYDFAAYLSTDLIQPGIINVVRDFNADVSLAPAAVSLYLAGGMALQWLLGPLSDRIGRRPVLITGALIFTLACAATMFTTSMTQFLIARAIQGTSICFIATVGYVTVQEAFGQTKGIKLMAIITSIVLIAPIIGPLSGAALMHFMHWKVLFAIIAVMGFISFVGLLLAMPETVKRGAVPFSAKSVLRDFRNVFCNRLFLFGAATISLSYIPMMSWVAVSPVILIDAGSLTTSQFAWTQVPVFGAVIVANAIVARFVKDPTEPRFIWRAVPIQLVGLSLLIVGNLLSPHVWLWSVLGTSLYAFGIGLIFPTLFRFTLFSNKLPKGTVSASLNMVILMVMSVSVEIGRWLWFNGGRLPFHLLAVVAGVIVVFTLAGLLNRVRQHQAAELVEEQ

Structure (SMILES): c1ccc([P+](c2ccccc2)(c2ccccc2)c2ccccc2)cc1 [TPP+]
- Kd: 0.4 ± 0.145 µM

Structure (SMILES): O=C(N[C@H](CO)[C@H](O)c1ccc([N+](=O)[O-])cc1)C(Cl)Cl [chloramphenicol, 2,2-dichloro-N-[2-hydroxy-1-hydroxymethyl-2-(4-nitro-phenyl)-ethyl]-acetamide]
- Kd: 0.022 ± 0.004 µM

Reference: article PMC4785361, “Insight into determinants of substrate binding and transport in a multidrug efflux protein” (Scientific Reports, 2016)
